Values of other authors, collected in patent US6645524B2, “Oral pharmaceutical dosage forms for pulsatile delivery of an antiarrhythmic agent” (Pierce Management LLC, priority 2000, dated 2003).
Where two headings read alike, the source gives them in different places.

Columns and labels:
[1] = system: patients with chronic atrial fibrillation/atrial flutter; settings: titrated 80 mg/day to 320 mg/day after cardioversion; placebo 44 days
[2] = system: patients with histories of sustained ventricular tachyarrhythmias; settings: versus imipramine, mexiletine, pirmenol, procainamide, propafenone and quinidine, 496 patients
[3] = system: patients with symptomatic primary paroxymal atrial fibrillation/atrial flutter; settings: for median time to recurrence of symptomatic ECG-documented atrial fibrillation/atrial flutter: twice a day
QT interval = settings: 6 days of 80 mg twice or three times daily, 10 patients
[4] = system: high-risk post-myocardial infarction patients; settings: 3,121 patients with left ventricular ejection fraction of 40% or below, versus placebo
[5] = more than 99% enantiomerically pure, given in tablets

SMILES | median time to recurrence of ECG-documented atrial fibrillation [1] | preventing death from arrhythmias or any other cardiac cause [2] | absorption (given with food) | apparent volume of distribution (human, in vivo) | eliminated by renal excretion as unchanged sotalol (human, in vivo) | protein binding (human, in vivo) | bioavailability (no significant presystemic metabolism) | absorption (oral ingestion on an empty stomach) | patients discontinued because of adverse events ([3]; 80 mg dose level) [%] | median time to recurrence of symptomatic ECG-documented atrial fibrillation/atrial flutter ([3]; 80 mg dose level) [days] | patients discontinued because of adverse events ([3]; 120 mg dose level) [%] | median time to recurrence of symptomatic ECG-documented atrial fibrillation/atrial flutter ([3]; 120 mg dose level) [days] | patients discontinued because of adverse events ([3]; 160 mg dose level) [%] | median time to recurrence of symptomatic ECG-documented atrial fibrillation/atrial flutter ([3]; 160 mg dose level) [days] | partial loss of repolarization effect (pharmacodynamic tolerance) (QT interval) | mortality [4] | effect on heart rate and blood pressure [5]
CC(C)NCC(O)c1ccc(NS(C)(=O)=O)cc1 (racemic) [sotalol] | more than 180 days | more effective than the other agents | approximately 80% | two | 80-90% | negligible | completely bioavailable | completely absorbed | 12 | 106 | 18 | 229 | 29 | 175 | four out of the ten patients | – | –
CC(C)NC[C@@H](O)c1ccc(NS(C)(=O)=O)cc1 [d-sotalol] | – | – | – | – | – | – | – | – | – | – | – | – | – | – | – | increased mortality compared with placebo | decreased resting and exercise heart rate without altering blood pressure
